Common to all, as to type: biochemical
Assay [1] addresses T1, human collagenase-3 (Coll3) (Homo sapiens, UniProt P45452).
T1 construct: the catalytic domain was liberated by treatment with 2 mM APMA at room temperature overnight; ubiquitin (N, cleaved yes); made in house; host or cells: E. coli
The experiment in a line: Fluorometric MCA-peptide hydrolysis assay, collagenase-3 (Coll3). To be noted: apparent Ki; 10 μM MCA peptide substrate, 37° C., pH 7.5; read-out: Coll3 (Ki,app). The method, then:
The propeptide and catalytic domain of human collagenase-3 (Coll3) was expressed in E. coli as an N-terminal fusion protein with ubiquitin. After purification of the fusion from inclusion bodies, the catalytic domain was liberated by treatment with 2 mM APMA at room temperature overnight. Final purification was completed using copper chelate chromatography.
(§1) Assays were performed in assay buffer (50 mM Tricine pH 7.5, 200 mM sodium chloride, 10 mM calcium chloride, 0.5 mM zinc acetate containing 2% dimethyl sulfoxide (DMSO)) once the substrate and inhibitor were diluted into it. Stock solutions of inhibitors were prepared in 100% DMSO. Stock solutions of the substrate were prepared in 100% DMSO at a concentration of 6 mM.
(§2) The assay method was based on the hydrolysis of MCA-Pro-Leu-Gly-Leu-DPA-Ala-Arg-NH2 (American Peptide Co.) at 37° C. (see Knight, C. G. et al., FEBS, 1992, 296, 263-266). The fluorescence changes were monitored with a Perkin-Elmer LS-50B fluorimeter using an excitation wavelength of 328 nm and an emission wavelength of 393 nm. The substrate concentration used in the assays was 10 μM. The inhibitor was diluted into the assays from a solution in 100% DMSO, and controls substituted an equal volume of DMSO so that the final DMSO concentration from inhibitor and substrate dilution in all assays was 2%. […] Proper determination of steady-state rates of substrate cleavage required assay lengths of 60 minutes to allow for complete equilibration of the enzyme-inhibitor complex.
The Km for the MCA peptide substrate with the matrix metalloproteinases is quite high and exceeds its solubility under assay conditions. Consequently, the apparent Ki (Ki,app) was determined to describe the strength of inhibition. However, in this case, Ki,app would be essentially equal to Ki since [S]<<Km. For the determination of Ki,app, the concentration of the inhibitor was varied at a constant and low concentration of substrate and the steady-state rates of fluorescence change determined. […] For slow-binding inhibitors, onset of inhibition curves were collected for at least 45 minutes so that equilibrium was established. Steady-state rates of fluorescence change were obtained by fitting a curve to an equation for a single exponential decay containing a linear phase. The fitted value of the linear phase was taken as the steady-state rate. The steady-state rates were fitted to the Michaelis equation describing competitive inhibition by non-linear methods. Data resulting from tight-binding inhibition was analyzed, and Ki,app determined by fitting the data to the tight-binding equation of Morrison (Biochem. Biophys. Acta, vol. 185, pp. 269-286 (1969)) by non-linear methods.

Assay [2] has as its target T2, human progelatinase A (GelA), catalytic and fibronectin-like portion (Homo sapiens, UniProt P08253).
T2 construct: The catalytic and fibronectin-like portion of human progelatinase A (GelA) was expressed as a fusion protein with ubiquitin; ubiquitin; made in house; host or cells: E. coli
Briefly: Fluorometric MCA-peptide hydrolysis assay, gelatinase A (GelA). The settings on record: apparent Ki, 10 μM MCA peptide substrate, 37° C., pH 7.5; for Ki: read-out: GelA (Ki,app). As for the experimental part:
The catalytic and fibronectin-like portion of human progelatinase A (GelA) was expressed as a fusion protein with ubiquitin in E. Coli. Assays were carried out on autocatalytically activated material.
as §1, §2
(§3) The Km for the MCA peptide substrate with the matrix metalloproteinases is quite high and exceeds its solubility under assay conditions. Consequently, the apparent Ki (Ki,app) was determined to describe the strength of inhibition. However, in this case, Ki,app would be essentially equal to Ki since [S]<<Km. For the determination of Ki,app, the concentration of the inhibitor was varied at a constant and low concentration of substrate and the steady-state rates of fluorescence change determined. In most cases absorptive quench due to the presence of ligand was not observed. For slow-binding inhibitors, onset of inhibition curves were collected for at least 45 minutes so that equilibrium was established. Steady-state rates of fluorescence change were obtained by fitting a curve to an equation for a single exponential decay containing a linear phase. The fitted value of the linear phase was taken as the steady-state rate. The steady-state rates were fitted to the Michaelis equation describing competitive inhibition by non-linear methods. Data resulting from tight-binding inhibition was analyzed, and Ki,app determined by fitting the data to the tight-binding equation of Morrison (Biochem. Biophys. Acta, vol. 185, pp. 269-286 (1969)) by non-linear methods.

The target in assay [3] is T3, catalytic domain of human stromelysin (Hsln) (Homo sapiens, UniProt P08254).
T3 construct: The catalytic domain of human stromelysin (Hsln) was obtained by expression and purification of a C-terminally truncated prostromelysin-1; made in house; host or cells: E. coli BL21
Briefly: Fluorometric MCA-peptide hydrolysis assay, stromelysin (Hsln). The settings on record: apparent Ki; 10 μM MCA peptide substrate, 37° C., pH 7.5; read-out: Hsln (Ki,app). The method, then:
The catalytic domain of human stromelysin (Hsln) was obtained by expression and purification of a C-terminally truncated prostromelysin-1 from E. coli host BL21 (see Marcy et al. Biochem., 1991, 30, 6476). The subsequent activation of the mature form (Hsln) was completed with 2 mM APMA for 1 hour at 37° C., followed by separation using a sizing column.
as §1, §2, §3

The target of assay [4] is T4, Human matrilysin (Matr) (Homo sapiens, UniProt P09237).
T4 construct: the catalytic domain was liberated by treatment with 2 mM APMA at 37° C. for 2 hours; ubiquitin (cleaved yes); made in house; host or cells: E. coli
T4 sequence (P09237 95-267): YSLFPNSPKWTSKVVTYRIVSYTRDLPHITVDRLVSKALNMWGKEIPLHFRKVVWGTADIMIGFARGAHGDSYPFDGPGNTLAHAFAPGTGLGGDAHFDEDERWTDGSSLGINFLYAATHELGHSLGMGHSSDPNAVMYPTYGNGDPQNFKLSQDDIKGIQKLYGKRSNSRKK
Briefly: Fluorometric MCA-peptide hydrolysis assay, matrilysin (Matr). The settings on record: apparent Ki; 10 μM MCA peptide substrate, 37° C., pH 7.5; read-out: Matr (Ki,app). The method, then:
Human matrilysin (Matr) was expressed in E. coli as a fusion protein with ubiquitin. After purification of the matrilysin/ubiquitin fusion from inclusion bodies, the catalytic domain was liberated by treatment with 2 mM APMA at 37° C. for 2 hours. Final purification was complete using copper chelate chromatography.
as §1, §2, §3

The values below come from patent publication US6495699B2, “Metalloproteinase inhibitors, pharmaceutical compositions containing them, and their use” (Agouron Pharmaceuticals Inc., priority 1996, dated 2002).

T2 sequence (P08253 110-465 limits assumed): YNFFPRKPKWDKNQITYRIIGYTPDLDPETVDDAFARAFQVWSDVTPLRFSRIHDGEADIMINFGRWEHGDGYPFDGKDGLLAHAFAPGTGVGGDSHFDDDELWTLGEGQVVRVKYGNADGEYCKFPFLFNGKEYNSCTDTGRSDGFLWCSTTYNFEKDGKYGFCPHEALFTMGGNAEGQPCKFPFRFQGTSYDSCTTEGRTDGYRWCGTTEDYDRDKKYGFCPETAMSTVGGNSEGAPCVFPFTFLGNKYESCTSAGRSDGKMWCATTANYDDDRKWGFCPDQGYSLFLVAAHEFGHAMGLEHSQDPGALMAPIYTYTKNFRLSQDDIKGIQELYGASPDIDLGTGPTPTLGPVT
T3 sequence (P08254 100-272 limits assumed): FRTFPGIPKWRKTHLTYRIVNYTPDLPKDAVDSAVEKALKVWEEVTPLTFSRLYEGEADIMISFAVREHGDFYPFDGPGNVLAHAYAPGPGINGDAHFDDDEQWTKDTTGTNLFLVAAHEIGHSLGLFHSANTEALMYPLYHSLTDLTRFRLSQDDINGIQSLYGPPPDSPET

For the molecule “3(R)-[3-(4-Cyanophenyl)-1H-pyrrol-1-yl]-N-(2,2-dimethyl-1(S)-(hydroxymethyl)propyl)succinamic Acid Triethylammonium Salt [Example 5(h)]”, the Ki in assay [1] turned out to be 43 nM; in assay [2], 17.4 nM; in assay [3] it was 650 nM.

With “3(R)-[3-(4′-Cyanobiphenyl-4-yl)-1H-pyrrol-1-yl]-N-[2,2-dimethyl-1(S)-(hydroxymethyl)propyl]succinamic Acid Triethylammonium Salt [Example 5(g)]”, the Ki in assay [1] is 14.5 nM; in assay [2], 2.2 nM; in assay [3], 57 nM.

For `CCCC(C(=O)O)[C@H](C(=O)N[C@H](CO)Cc1ccccc1)n1ccc(-c2ccc(-c3ccc(C#N)cc3)cc2)c1` (mixture of isomers) [Example 10(b), 2(RS)-{1R-[1(S)-Benzyl-2-hydroxyethylcarbamoyl]-[3-(4′-cyano-biphenyl-4-yl)-1H-pyrrol-1-yl]-methyl}-pentanoic Acid], the Ki was 23.5 nM in assay [1], 510 nM in assay [4] and 16 nM in assay [3]. In addition, the GelA (Ki,app) in assay [2] came to 9.6 nM.

As for `CC(C)C[C@H](NC(=O)[C@@H](CC(=O)O)n1ccc(-c2ccc(-c3ccccc3)cc2)c1)C(C)O` (mixture of isomers) [Example 3], the Ki in assay [1] came out at 180 nM; in assay [4], 1250 nM; in assay [3], 150 nM. Besides, in assay [2], the GelA (Ki,app) was 58 nM.

Regarding `O=C(O)C(F)(F)F.O=C(O)C[C@H](C(=O)N[C@H](CO)Cc1c[nH]cn1)n1ccc(-c2ccc(-c3ccccc3)cc2)c1` [Example 1(g), 3(R)-[3-(Biphenyl-4-yl)-1H-pyrrol-1-yl]-N-[2-hydroxy-1(S)-[(1H-imidazol-4-yl)methyl]ethyl]succinamic Acid Trifluoroacetate Salt], the Ki in assay [1] was 58.5 nM; in assay [3], 58 nM. Moreover, in assay [2], the GelA (Ki,app) turned out to be 8.5 nM.

Regarding `O=C(O)C[C@H](C(=O)N[C@@H]1CCCC[C@H]1O)n1ccc(-c2ccc(-c3ccccc3)cc2)c1` [Example 1(h), 3(R)-[3-(Biphenyl-4-yl)-1H-pyrrol-1-yl]-N-(2(R)-hydroxycyclohex-1(R)-yl)succinamic Acid], the results for the Ki in assay [1] and in assay [3] were 3000 nM and 822 nM, respectively. For the same molecule, the GelA (Ki,app) in assay [2] was found to be 58 nM.

For `CON(C)C(=O)[C@H](CC(C)C)NC(=O)[C@@H](CC(=O)O)n1ccc(-c2ccc(-c3ccccc3)cc2)c1` [Example 1(l)], the Ki was determined as 227 nM in assay [1] and 317 nM in assay [3]. Moreover, in assay [2], the GelA (Ki,app) was found to be 54 nM.

Take `CNC(=O)[C@@H](NC(=O)[C@@H](CC(=O)O)n1ccc(C(=O)Cc2ccc(C#N)cc2)c1)C(C)(C)C` [Example 1(p), 3(R)-[3-[(4-Cyanophenyl)acetyl]-1H-pyrrol-1-yl]-N-(2,2-dimethyl-1(S)-(methylcarbamoyl)propyl]succinamic Acid]: the GelA (Ki,app) in assay [2] came out at 1230 nM. Besides, the Ki in assay [3] turned out to be 55000 nM.

On to `CNC(=O)[C@@H](CC(=O)O)n1ccc(-c2ccc(-c3ccncc3)cc2)c1` [Example 7(d), N-Methyl-3(R)-[3-[4-(pyridin-4-yl)phenyl]-1H-pyrrol-1-yl]succinamic Acid], for which the results for the Ki in assay [1] and in assay [3] were 284 nM and 1580 nM, respectively. Besides, the GelA (Ki,app) in assay [2] turned out to be 121 nM.

For `O=C(C[C@H](C(=O)N[C@H](CO)Cc1ccccc1)n1ccc(-c2ccc(-c3ccccc3)cc2)c1)NO` [Example 8(a)], in assay [2], the GelA (Ki,app) was found to be 0.027 nM. The Ki in assay [4] was determined as 36 nM; in assay [3], 0.69 nM.

In the case of `CC(C)(C)[C@@H](CO)NC(=O)[C@@H](CC(=O)NO)n1ccc(-c2ccc(-c3ccncc3)cc2)c1` [Example 9, N^1-[2,2-Dimethyl-1(S)-(hydroxymethyl)propyl]-N^4-hydroxy-2(R)-[3-[4-(pyridin-4-yl)phenyl]-1H-pyrrol-1-yl]succinamide], the Ki in assay [1] was 0.018 nM; in assay [3], 0.2 nM. Moreover, the GelA (Ki,app) in assay [2] is 0.011 nM.

In the case of `CC(C)(C)[C@@H](CO)NC(=O)[C@@H]([C@H](CCCO)C(=O)O)n1ccc(-c2ccc(-c3ccccc3)cc2)c1` [Example 11, 2S-[1R-(3-(Biphenyl-4-yl)-1H-pyrrol-1-yl)-1-(1(S)-hydroxymethyl-2,2-dimethyl-propylcarbamoyl)-methyl]-5-hydroxypentanoic Acid], the Ki in assay [1] was over 750 nM; in assay [3] it was 62 nM. Also, in assay [2], the GelA (Ki,app) was 60 nM.

`C=CC[C@H](C(=O)O)[C@H](C(=O)N[C@H](CO)C(C)(C)C)n1ccc(-c2ccc(-c3ccccc3)cc2)c1` [Example 12, 2S, 2(1S)-[[3-(Biphenyl-4-yl)-1H-pyrrol-1R-yl]-[2,2-dimethyl-1(S)-(hydroxymethyl)propylcarbamoyl]methyl]pent-4-enoic Acid]: the GelA (Ki,app) in assay [2] was over 500 nM. Further, the Ki in assay [3] is over 500 nM.

`CNC(=O)[C@@H](NC(=O)[C@@H](CC(=O)O)c1ccn(-c2ccc(-c3ccc(C#N)cc3)cc2)c1)C(C)(C)C` [Example 14(b), 3(S)-[1-(4′-Cyanobiphenyl-4-yl)-1H-pyrrol-3-yl]-N-[2,2-dimethyl-1(S)-(methylcarbamoyl)propyl]succinamic Acid]: the Ki in assay [1] is 0.028 nM; in assay [3], 1.3 nM. In addition, the GelA (Ki,app) in assay [2] amounted to 0.012 nM.

Turning to `O=C(O)C[C@H](C(=O)N[C@H](CO)Cc1ccccc1)c1ccc(-c2ccc(-c3ccccc3)cc2)o1` [Example 15(a), N-(1(S)-Benzyl-2-hydroxyethyl)-3(S)-(2-(biphenyl-4-yl)furan-5-yl)succinamic Acid], the Ki stood at 300 nM in assay [1] and 92 nM in assay [3]. The GelA (Ki,app) in assay [2] is 72 nM.

`CNC(=O)[C@@H](NC(=O)C(CC(=O)O)c1ccc(-c2ccc(-c3ccccc3)cc2)o1)C(C)(C)C` (stereo partly drawn) [Example 15(b), N-[2,2-Dimethyl-1(S)-(methylcarbamoyl)propyl]-3-(2-(biphenyl-4-yl)-furan-5-yl)succinamic Acid]: the Ki in assay [1] amounted to 1020 nM; in assay [3] it was 122 nM. Moreover, the GelA (Ki,app) in assay [2] was 91 nM.
